Experimental data reported in US5739166A, “Substituted terphenyl compounds for the treatment of inflammation” (G.D. Searle & Co., priority 1994, dated 1998).

Tested on: hyperalgesic foot withdrawal
Assay: Rat Carrageenan-induced Analgesia Test
Assay type: in vivo, Male Sprague-Dawley rats
Conditions: oral, assay performed at 50 mg/kg body weight, 3 hours after carrageenan
Method: Male Sprague-Dawley rats were treated as previously described for the Carrageenan Foot Pad Edema test. Three hours after the injection of the carrageenan, the rats were placed in a special plexiglass container with a transparent floor having a high intensity lamp as a radiant heat source; positionable under the floor. After an initial twenty minute period, thermal stimulation was begun on either the injected foot or on the contralateral uninjected foot. A photoelectric cell turned off the lamp and timer when light was interrupted by paw withdrawal. The time until the rat withdraws its foot was then measured. The withdrawal latency in seconds was determined for the control and drug-treated groups, and percent inhibition of the hyperalgesic foot withdrawal determined.

## COc1ccc(-c2cc(F)c(F)cc2-c2ccc(S(N)(=O)=O)cc2)cc1Cl [Example 20, 4-[2-(3-chloro-4-methoxyphenyl)-4,5-difluorophenyl]benzenesulfonamide]
  ANALGESIA % Inhibition: 22%
